Legend:
[1] = test system: Nephrectomy-derived normal adjacent tissue (NAT) and RCC cells; test: Organoid forming efficiency (OFE) of kidney cells in 2D stage I / 3D Matrigel stage II culture; format: cell-based, human
Excerpt: The human kidney contains up to 2 million epithelial nephrons responsible for blood filtration. Regenerating the kidney requires the induction of the more than 20 distinct cell types required for excretion and the regulation of pH, and electrolyte and fluid balance. Herein is described the induction of progenitors for both collecting duct and nephrons via the directed differentiation of patient-derived normal and RCC cells derived from nephrectomy tissues. Under an IRB-approved protocol, nephrectomy specimens from high-risk RCC cases were collected and processed within 15 minutes of surgery. Areas containing tumor as deemed by the pathologist and normal adjacent tissue counterpart were microdissected. A 3D culture system fit for growth of kidney cells was first developed by isolating epithelial cells microdissected from primary RCC specimens. Qualified pathologists confirmed their renal origin from the corresponding H&E. Nephrectomy-derived normal adjacent tissue (NAT) and RCC cells were utilized to determine best conditions for generating organoids. A two-step methodology comprising a first phase of adult kidney stem cell enrichment, conducted in a 2D setting (stage I), followed by a second phase of organoid 3D growth obtained in pure matrigel chambers (stage II), was conducted. […] Stage I media included using either EGM2 or ADMED complete medium (with the addition of EGF, BFGF, IGF-1, VEGF, hydrocortisone, ascorbic acid, insulin, heparin, gentamicin, amphotericin-B, and 2% FBS).
Cells were placed in 3D droplet culture chambers in stage II complete media containing Matrigel, to mimic the basal lamina of the normal renal tissue, and growth factors in conditions that permits cellular self-organization of organoid forming cells. Kidney cells were embedded as single cells in 3D-well plates. Organoid formation was then followed microscopically daily for 2 weeks.

[2] = test system: cultured nephron progenitor cells; test: Effect of activating Wnt signaling on kidney organoid formation, shape and size; format: cell-based, human
Procedure: The organoids generated from multiple patient samples had various phenotypes during the different times of 2D culture. A similar diversity in phenotypes was also detected in the 3D culture stage. Moreover, the organoids formed in 3D culture had both spherical or branching shapes. When […] (1 μM) was added to the media as a pulse for 12 h then media was replaced with fresh media without CHIR, branching tubular shaped organoids increased. In another group of experiments, the effects of addition of 1× B27 supplement were examined.
The Wnt signaling pathway is known to trigger the initiation of nephron progenitor cell differentiation. The effects of activating Wnt signaling in organoid studies was examined. Cultured 2D and 3D cells were treated with a GSK3 inhibitor CHIR99021 (CHIR), which activates the canonical Wnt signaling pathway. […] On the other hand, branching tubular shaped organoids increased.

[3] = cultured 2D and 3D cells treated

With VEGF the “organoid forming efficiency (OFE)” value ([1]; addition to the culture media) was “improved”.

In the case of Insulin: culture medium supplement, the “organoid forming efficiency (OFE)” value ([1]; addition to the culture media) is reported as “improved”.

In the case of heparin, the “organoid forming efficiency (OFE)” value ([1]; addition to the culture media) is reported as “improved”.

For `Cc1c[nH]c(-c2cnc(NCCNc3ccc(C#N)cn3)nc2-c2ccc(Cl)cc2Cl)n1` [CHIR99021], the “branching tubular shaped organoids” value ([2]; 1 μM added to the media as a pulse for 12 h, then fresh media) was “increased”, the cell death [2, 3] was “accompanied by cell death” and the “differentiation in cultured nephron progenitor cells” value [2, 3] was “induced differentiation”. The organoid size [2, 3] was “smaller size organoids” and the “branching tubular shaped organoids” value ([2]; cultured 2D and 3D cells treated, concentration not given) was “increased”.

With “IGF-1: Insulin Growth Factor 1, culture medium supplement” the “organoid forming efficiency (OFE)” value ([1]; addition to the culture media) was “improved” and the “organoid forming efficiency (OFE)” value ([1]; doubling the IGF-1 dose (2×) in culture) was “did not increase”.

From patent US11834680B2, “Single kidney cell-derived organoids” (Rutgers, The State University of New Jersey, priority 2017, dated 2023)
